One may read the inhibition as the relative decrease from the control value, in per cent.

SMILES strings stand for the structures.

Assay [1] deals with T1, human neurokinin 1 (NK1) receptor (Homo sapiens, UniProt P25103).
T1 construct: expressed in transfected cells; host or cells: CHO (Chinese hamster ovary) cells, membranes
Put plainly: Neurokinin receptor binding assay, human NK1. Conditions: CHO cell membranes, [3H]-Substance P, read-out: % Inhibition of NK1 at a dose of 1 μM. The method, then:
(§1) Chinese Hamster ovary (CHO) cells transfected with the coding regions for the human neurokinin 1 (NK1) of the human neurokinin 2 (NK2) receptors are grown in Dulbecco's minimal essential medium supplemented with 10% fetal calf serum, 0.1 mM non-essential amino acids, 2 mM glutamine, 100 units/ml of penicillin and streptomycin, and 0.8 mg of G418/ml at 37° C. in a humidified atmosphere containing 5% CO2.
(§2) Cells are detached from T-175 flasks with a sterile solution containing 5 mM EDTA in phosphate buffered saline. Cells are harvested by centrifugation and washed in RPMI media at […] for 5 minutes. The pellet is resuspended in Tris-HCl (pH7.4) containing 1 uM phsphoramidon and 4 ug/ml of chymostatin at a cell density of 30×10^6 cells/ml. The suspension is then homogenized in a Brinkman Polytron (setting 5) for 30-45 seconds. The homogenate is centrifuged at 800 x g for 5 min at 4° C. to collect unbroken cells and nuclei. The supernatant is centrifuged in a Sorvall RC5C at 19,000 rpm ([…]) for 30 min at 4° C. The pellet is resuspended, an aliquot is removed for a protein determination (BCA) and washed again. The resulting pellet is stored at -80° C.
(§3) To assay receptor binding, 50 μl of [^3 H]-Substance P (9-Sar, 11-Met) (specific activity 41 Ci/mmol) (Dupont-NEN) (0.8 nM for the NK-1 assay) or [^3 H]-Neurokinin A (specific activity 114 Ci/ mmole) (Zenca) (1.0 nM for the NK-2 assay) is added to tubes containing buffer (50 mM Tris-HCl (pH 7.4) with 1 mM MnCl2 and 0.2% Bovine Serum Albumin) and either DMSO or test compound. Binding is initiated by the addition of 100 μl of membrane (10-20 μg) containing the human NK-1 or NK-2 receptor in a final volume of 200 μl. After 40 minutes at room temperature, the reaction is stopped by rapid filtration onto Whatman GF/C filters which have been presoaked in 0.3% polyethylenimine. Filters are washed 2 times with 3 ml of 50 mM Tris-HCl (pH7.4). Filters are added to 6 mls of Ready-Safe liquid scintillation cocktail and quantified by liquid scintillation spectrometry in a LKB 1219 RackBeta counter. Non-specific binding is determined by the addition of either 1 μM of CP-99994 (NK-1) or 1 μM SR-48968 (NK-2) (both synthesized by the chemistry department of Schering-Plough Research Institute). IC50 values are determined from competition binding curves and Ki values are determined according to Cheng and Prusoff using the experimentally determined value of 0.8 nM for the NK-1 receptor and 2.4 nM for the NK-2 receptor.
(§4) % Inhibition is the difference between the percent of maximum specific binding (MSB) and 100%. The percent of MSB is defined by the following equation, wherein "dpm" is disintegrations per minute: [formula]

In assay [2] the target is T2, human neurokinin 2 (NK2) receptor (Homo sapiens, UniProt P21452).
T2 construct: expressed in transfected cells; host or cells: CHO (Chinese hamster ovary) cells, membranes
T2 sequence (P21452 1-398): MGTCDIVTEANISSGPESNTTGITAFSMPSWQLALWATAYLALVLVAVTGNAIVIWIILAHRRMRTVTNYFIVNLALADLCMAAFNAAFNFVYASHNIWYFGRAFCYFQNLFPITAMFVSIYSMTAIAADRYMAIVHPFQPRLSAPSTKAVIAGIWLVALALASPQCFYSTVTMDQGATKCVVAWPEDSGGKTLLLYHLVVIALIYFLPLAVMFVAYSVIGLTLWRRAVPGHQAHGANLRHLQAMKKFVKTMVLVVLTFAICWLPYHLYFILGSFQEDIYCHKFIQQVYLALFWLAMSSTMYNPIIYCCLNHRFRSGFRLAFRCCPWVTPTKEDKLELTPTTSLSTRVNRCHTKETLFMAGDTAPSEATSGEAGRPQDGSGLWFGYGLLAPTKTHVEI
Put plainly: Neurokinin receptor binding assay, human NK2. Conditions: CHO cell membranes, [3H]-Neurokinin A, read-out: % Inhibition of NK2 at a dose of 1 μM. The method, then: as §1, §2, §3, §4

T1 sequence (P25103 whole entry): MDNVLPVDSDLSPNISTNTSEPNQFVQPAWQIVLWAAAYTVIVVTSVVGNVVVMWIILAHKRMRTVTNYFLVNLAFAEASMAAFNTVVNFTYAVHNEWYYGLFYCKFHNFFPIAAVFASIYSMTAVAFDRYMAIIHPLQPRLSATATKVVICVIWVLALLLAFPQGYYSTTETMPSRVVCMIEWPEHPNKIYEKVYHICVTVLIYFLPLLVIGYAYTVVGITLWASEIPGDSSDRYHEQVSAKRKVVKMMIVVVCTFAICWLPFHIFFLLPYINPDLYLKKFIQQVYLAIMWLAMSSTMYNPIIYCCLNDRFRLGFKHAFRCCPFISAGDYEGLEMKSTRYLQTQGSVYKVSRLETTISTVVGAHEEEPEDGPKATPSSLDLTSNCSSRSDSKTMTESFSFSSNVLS

For the compound `CN(C[C@H](c1ccc(Cl)c(Cl)c1)[C@@H](O)CN1CCC(O)(c2ccccc2)CC1)C(=O)c1ccccc1` (relative stereo) [Example 2], the inhibition at 1 µM in assay [1] was 81%; in assay [2] it was 88%.

For the compound `CN(C[C@H](c1ccc(Cl)c(Cl)c1)[C@@H](CN1CCC(O)(c2ccccc2)CC1)OCc1cc(C(F)(F)F)cc(C(F)(F)F)c1)C(=O)c1ccccc1` (relative stereo) [Example 19], the inhibition at 1 µM in assay [1] was determined as 78%; in assay [2] it was 18%.

For the compound `COC(CN1CCC(O)(c2ccccc2)CC1)C(CNC(=O)OC(C)(C)C)c1ccc(Cl)c(Cl)c1` (stereo not shown) [Example 12], the inhibition at 1 µM in assay [1] is 9%; in assay [2], 68%.

Consider `CN(CC(C(=O)CN1CCC(O)(c2ccccc2)CC1)c1ccc(Cl)c(Cl)c1)C(=O)c1ccccc1` (stereo not shown) [Example 16], for which the inhibition at 1 µM in assay [1] was 23%; in assay [2], 96%.

In the case of `CON=C(CN1CCC(O)(c2ccccc2)CC1)C(CN(C)C(=O)c1ccccc1)c1ccc(Cl)c(Cl)c1` (stereo not shown) [Example 18], the inhibition at 1 µM was determined as 1% in assay [1] and 15% in assay [2].

Values taken from patent publication US5789422A, “Substituted arylalkylamines as neurokinin antagonists” (Schering Corporation, priority 1996, dated 1998).
